According to PubChem BioAssay (NCI):
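Dose response: 5 concentrations. Exposure: 48 h. Format: 96-well plates. Endpoint: linear interpolation; highest concentration if not reached. The concentration for full growth arrest is given as TGI.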 Where a SMILES comes first, the peptide text is derived from it. [ ]: non-standard residue; d: D form. The star is where a group is joined. ξ: configuration not given here. dThr(3ξ) = CC(O)[C@@H](N)C(=O)O; dNMeL = CN[C@H](CC(C)C)C(=O)O; OBn = c1ccc(CO*)cc1; ξLac = CC(O)C(=O)O

Experiments:
Assay in all cases: DTP human tumour cell line panel, 48 h
786-0 renal = test system: 786-0 renal
A549 NSCLC = test system: A549 NSCLC
ACHN renal = test system: ACHN renal
HCC-2998 colon = test system: HCC-2998 colon
HCT-116 colon = test system: HCT-116 colon
HCT-15 colon = test system: HCT-15 colon
IGROV1 ovarian = test system: IGROV1 ovarian
KM12 colon = test system: KM12 colon
MCF7 breast = test system: MCF7 breast
MDA-N = test system: MDA-N
NCI-H460 lung = test system: NCI-H460 lung
NCI/ADR-RES ovarian = test system: NCI/ADR-RES ovarian
OVCAR-3 ovarian = test system: OVCAR-3 ovarian
SK-OV-3 ovarian = test system: SK-OV-3 ovarian
SN12C renal = test system: SN12C renal
SNB-19 CNS = test system: SNB-19 CNS
SW-620 colon = test system: SW-620 colon
T-47D breast = test system: T-47D breast
UO-31 renal = test system: UO-31 renal

| SMILES | TGI (786-0 renal) [µM] | TGI (A549 NSCLC) [µM] | TGI (ACHN renal) [µM] | TGI (HCC-2998 colon) [µM] | TGI (HCT-116 colon) [µM] | TGI (HCT-15 colon) [µM] | TGI (IGROV1 ovarian) [µM] | TGI (KM12 colon) [µM] | TGI (MCF7 breast) [µM] | TGI (MDA-N) [µM] | TGI (NCI-H460 lung) [µM] | TGI (NCI/ADR-RES ovarian) [µM] | TGI (OVCAR-3 ovarian) [µM] | TGI (SK-OV-3 ovarian) [µM] | TGI (SN12C renal) [µM] | TGI (SNB-19 CNS) [µM] | TGI (SW-620 colon) [µM] | TGI (T-47D breast) [µM] | TGI (UO-31 renal) [µM] |
| --- | --- | --- | --- | --- | --- | --- | --- | --- | --- | --- | --- | --- | --- | --- | --- | --- | --- | --- | --- |
| CC(=O)OC(C)[C@@H](NC(=O)[C@@H](CC(C)C)N(C)C(=O)[C@@H]1CCCN1C(=O)C(C)O)C(=O)OCc1ccccc1 (some centres undefined) (H-[ξLac]P[dNMeL][dThr(3ξ)](Ac)-OBn) | > 100 | > 100 | > 100 | > 100 | > 100 | > 100 | > 100 | > 100 | > 100 | > 100 | > 100 | > 100 | > 100 | > 100 | > 100 | > 100 | > 100 | > 100 | > 100 |
| CN(/N=C/c1cccs1)c1ccc(Cl)cc1[N+](=O)[O-] | > 100 | > 100 | > 100 | > 100 | > 100 | > 100 | > 100 | > 100 | > 100 | > 100 | > 100 | 66.7 | > 100 | > 100 | > 100 | > 100 | > 100 | > 100 | > 100 |
| COc1[nH]c(C(Cl)(Cl)Cl)c(Cl)c(=O)c1Cl | > 100 | > 100 | > 100 | > 100 | > 100 | > 100 | > 100 | > 100 | > 100 | > 100 | > 100 | > 100 | > 100 | > 100 | > 100 | > 100 | > 100 | > 100 | > 100 |
| CCCCCC(O)[C@H]1C(=O)C[C@@H](O[Si](C)(C)C(C)(C)C)[C@@H]1/C=C/CCOCc1ccccc1 (some centres undefined) | 26.1 | > 60.3 | 26.2 | 30.9 | > 45.5 | 27.4 | 25.6 | 17.2 | > 54.7 | > 63.9 | 30.5 | 29.3 | 28.1 | 31.1 | 38.4 | 28.5 | 41.4 | 40.1 | 27.5 |
| CC(C)[Si](OC1=C(C(=O)Nc2ccccc2Cl)CCCCC1)(C(C)C)C(C)C | > 100 | > 100 | > 100 | > 100 | > 100 | > 100 | > 100 | > 100 | > 100 | > 100 | > 100 | > 100 | > 100 | > 100 | > 100 | > 100 | > 100 | > 100 | > 100 |
| NC1CC(=O)c2c(Cl)sc(Cl)c21 (centres undefined) | 2.87 | 35.3 | 6.14 | 22.7 | 4.49 | 3.94 | 9.84 | 12.8 | 7.9 | 16.4 | 33.7 | 49.9 | 24 | 26.4 | 14.4 | 42.2 | 3.73 | 4.96 | 20.3 |
